Values of other authors as cited in patent US20090285878A1, “Compositions and methods for stabilizing liposomal drug formulations” (Tekmira Pharmaceuticals Corporation, priority 2004, published 2009).

For `CC[C@@]1(O)C(=O)OCc2c1cc1n(c2=O)Cc2cc3c(CN(C)C)c(O)ccc3nc2-1` [Topotecan], the Lactone hydrolyzed (above pH 9) is listed as “more than 95%” and the “Open (carboxylate) form of lactone ring” value (below pH 4) is listed as “no open form is present”.
